Reference: patent US20200046625A1, “COMPOUNDS USEFUL FOR THE TREATMENT AND/OR CARE OF THE SKIN, HAIR, NAILS AND/OR MUCOUS MEMBRANES” (LUBRIZOL ADVANCED MATERIALS, INC., priority 2016, published 2020)
The star is where a group is joined. Palmitoyl = CCCCCCCCCCCCCCCC(=O)*; Myristoyl = CCCCCCCCCCCCCC(=O)*

Legend:
[1] = test system: primary human subcutaneous pre-adipocyte cells; assay: Reduction of lipid accumulation, AdipoRed fluorescent assay; type: cell-based; conditions: 8 days of treatment, PGM2 = 0%, PDM2 basal control = 100%
Procedure: The reduction of the percentage of lipid accumulation in human pre-adipocyte cells in a complete differentiation medium (basal control) is studied by treatment of the cells with the peptides of the invention. Quantification of lipid accumulation is evaluated with AdipoRed™ Assay Reagent (Lonza). Human pre-adipocyte cells (Lonza) are seeded in quadruplicate (10.000 cells/well) on a 96-well plate and they are incubated on a complete growth medium (PGM2, Lonza) for 24 hours at […] in a water-saturated atmosphere composed of 95% air and 5% CO2. The differentiation of pre-adipocytes into adipocytes is induced by changing the complete growth medium (PGM2, Lonza) for the complete differentiation medium (PDM2, Lonza). The cells are treated with the peptides of the invention at different concentrations prepared in complete differentiation medium. Caffeine (Sigma) at 0.2 mg/ml in PDM2 medium is used as a negative control of the lipid accumulation in the cells. Caffeine is the most widely used anti-cellulite cosmetic agent. […] Manufacturer protocol is followed for the use of AdipoRed™ Assay Reagent (Lonza). In brief, the cells are washed and the reagent AdipoRed™ is added diluted (5/200). After being incubated for 15 minutes in darkness and at room temperature, the Relative Fluorescence Units (RFUs) are measured using a fluorescence plate reader (CLARIOstar™, BMG LABTECH), with excitation filter at 485 nm and emission filter at 572 nm. […] The results are calculated as the mean of all the independent experiments carried out in each case for each peptide and concentration assayed.

[2] = test system: Nocturnin (CCRN4L) in primary human subcutaneous pre-adipocyte cells; assay: Relative level of nocturnin by ELISA, normalized with BCA total protein; type: cell-based; conditions: for Nocturnin level with respect to basal condition (%): 6 days of treatment, mean of 3 independent experiments
Procedure: The decrease in the relative level of nocturnin protein in human pre-adipocytes, cells that form adipose tissue, in a complete differentiation medium (basal condition) is studied when treating the peptides of the invention.
Human pre-adipocytes are seeded (10,000 cells/well, 4 wells per condition) on a 96-well plate and incubated on a complete growth medium (PGM2, LONZA) for 24 hours at 37° C. at an atmosphere with a CO2 level of 5%.
After incubation, the cells are treated with the peptides at 0.1, 0.5 and 1 mg/ml and its respective vehicles prepared in a complete differentiation medium (PDM2, LONZA). After 6 days of treatment at an atmosphere with 37° C. and a 5% CO2 level, the nocturnin level is measured using an ELISA test, and the total protein concentration is measured using a BCA (Bicinchoninic Acid) assay. For each concentration, the ELISA results are normalized with the BCA results. […] The values represent the mean of 3 independent experiments.
The manufacturer protocol of the ELISA kit for Carbon Catabolite Repression 4 Like Protein (CCRN4L) (Uscn Life Science Inc) is followed. In brief, the cells are lysed and the cell extracts are incubated on a 96-well plate coated with an anti-body specific to CCRN4L. Afterwards, the wells are coated with an antibody specific to CCRN4L conjugated with Biotin. Next, the Avidin conjugated with the enzyme Horseradish Peroxidase (HRP) is added to the plate. Finally, 3,3′,5,5′-Tetramethylbenzidine substrate is added to the plate and a change in color is observed proportionally to the quantity of nocturnin in each concentration. Lastly, a sulfuric acid solution is added to stop the enzyme-substrate reaction and quantify the color change with an absorbance reader (CLARIOstar™, BMG LABTECH) at 450 and 570 nm.
The manufacturer protocol of the BCA Protein assay kit (Pierce) is followed. The total protein concentration of the lysed cells is measured via a colorimetric reaction using a protein standard. In brief, the standard and the samples are distributed onto 96-well plates. The plate is then incubated with the reagent of the kit and finally the change in color is measured with the absorbance reader (CLARIOstar, BMG LABTECH) at 570 nm.

| Compound | % Lipid Accumulation ([1]; 1 mg/ml) | other results |
| --- | --- | --- |
| Cn1c(=O)c2c(ncn2C)n(C)c1=O [Caffeine, reference compound] | – | % Lipid Accumulation ([1]; 0.2 mg/ml in PDM2): 76.07% |
| Ac-Trp-Val-Tyr-NH2 | 63.18% | – |
| Ac-Tyr-Val-Tyr-NH2 | 20.81% | – |
| H-Phe-Trp-Tyr-Val-Tyr-NH2 (H-FWYVY-NH2) | – | % Lipid Accumulation ([1]; 0.005 mg/ml): 55.99% |
| H-Phe-Tyr-Val-Tyr-Phe-NH2 (H-FYVYF-NH2) | 64.31% | – |
| H-Tyr-Ile-Phe-NH2 | 47.45% | – |
| H-Tyr-Ile-Phe-NHC6H13 | 30.72% | – |
| H-Tyr-Ile-Phe-NHC16H33 | 40.61% | – |
| H-Tyr-Ile-Tyr-NH2 | 46.63% | – |
| H-Tyr-Ile-Tyr-NHC6H13 | 52.82% | – |
| H-Tyr-Ile-Tyr-NHC16H33 | 23.74% | – |
| H-Tyr-Leu-Trp-NH2 | 62.42% | – |
| H-Tyr-Met-Tyr-NH2 | 40.24% | – |
| H-Tyr-Val-Trp-NH2 | 61.87% | – |
| H-Tyr-Val-Tyr-NH2 | 15.65% | Nocturnin level with respect to basal condition (%) ([2]; 0.1 mg/mL): 76%; Nocturnin level with respect to basal condition (%) ([2]; 0.5 mg/mL): 62%; Nocturnin level with respect to basal condition (%) ([2]; 1 mg/mL): 48%; dose-response of nocturnin reduction (in words) ([2]; 0.1, 0.5 and 1 mg/ml): a dose-response relationship is observed; % Lipid Accumulation ([1]; 0.1 mg/ml): 32.65%; % Lipid Accumulation ([1]; 0.5 mg/ml): 18.60% |
| H-Tyr-Val-Tyr-NHC6H13 | 30.79% | – |
| H-Tyr-Val-Tyr-NHC16H33 | 50.12% | – |
| H-Tyr-Val-Tyr-OH | 22.66% | Nocturnin level with respect to basal condition (%) ([2]; 0.1 mg/mL): 67%; Nocturnin level with respect to basal condition (%) ([2]; 0.5 mg/mL): 87%; Nocturnin level with respect to basal condition (%) ([2]; 1 mg/mL): 83%; % Lipid Accumulation ([1]; 0.1 mg/ml): 35.14%; % Lipid Accumulation ([1]; 0.5 mg/ml): 33.55% |
| H-Tyr-Val-Tyr-Phe-NH2 (H-YVYF-NH2) | 86.68% | – |
| H-Tyr-Val-Tyr-Phe-Trp-NH2 (H-YVYFW-NH2) | 76.47% | – |
| H-Tyr-Val-Tyr-Trp-NH2 (H-YVYW-NH2) | 90.32% | – |
| Myristoyl-Tyr-Val-Phe-NH2 | 37.77% | – |
| Myristoyl-Tyr-Val-Tyr-NH2 | 12.40% | – |
| Palmitoyl-Tyr-Leu-Tyr-NH2 | 25.42% | – |
| Palmitoyl-Tyr-Leu-Tyr-OH | – | % Lipid Accumulation ([1]; 0.005 mg/ml): 79.98% |
| Palmitoyl-Tyr-Val-Tyr-NH2 | – | % Lipid Accumulation ([1]; 0.1 mg/ml): 86.17% |
